The target in experiment [1] is T1, EP3 receptor (Homo sapiens, UniProt P43115).
T1 construct: purchased Millipore HTS092M
T1 sequence (P43115 1-390): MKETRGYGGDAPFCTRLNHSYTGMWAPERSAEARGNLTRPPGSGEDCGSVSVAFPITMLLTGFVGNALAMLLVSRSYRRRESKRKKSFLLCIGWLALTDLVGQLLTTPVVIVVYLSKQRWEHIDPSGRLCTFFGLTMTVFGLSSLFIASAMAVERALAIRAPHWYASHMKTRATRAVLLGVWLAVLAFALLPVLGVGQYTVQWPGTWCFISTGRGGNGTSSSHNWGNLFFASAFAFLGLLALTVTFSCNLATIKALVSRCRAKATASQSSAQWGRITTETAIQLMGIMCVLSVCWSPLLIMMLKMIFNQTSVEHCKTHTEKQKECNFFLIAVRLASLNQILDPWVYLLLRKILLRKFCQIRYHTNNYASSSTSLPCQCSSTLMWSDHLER
The experiment in a line: [3H]-PGE2 binding assay (EP3 competition binding). How it is done: EP3 competition binding was determined using the following materials and experimental conditions:
Beads=Perkin Elmer RPNQ0001
EP3 membrane=Millipore HTS092M
Membrane concentration=2 μg/well
Beads concentration=0.25 mg/well
[3H]-PGE2=2 nM; DMSO—0.1%
Binding buffer=50 mM Tris, 10 mM MgCl2, 1 mM • EDTA, PH 7.4.
The binding buffer was removed from refrigeration (@ 4° C.) and allowed to warm to room temperature. Test compound (@ stock concentration of […] in DMSO) was serial dilutes (1:3) with 100% DMSO using Echo plate. Diluted test compound (30 nL) was dispensed to the 384-well assay plate (using Echo 550 Labcyte System). To each well was then added assay buffer (5 μl) and each well was spun. Beads were weighed out, dissolved in assay buffer to a concentration of 0.25 mg/15 μl. Original membrane was diluted with assay buffer to a concentration of 2 μg/5 μl. […] To each test well were then added diluted [3H]-PGE2 (5 μl), diluted membrane (5 μl), and dissolved beads (15 μl). The plate was equilibrated at room temperature on a plate shaker for 2 hours and then read with a TOPCOUNT scintillation plate reader. Results were analyzed using a Prism program with non-linear regression, one-site fit for Ki.

Experiment [2] addresses T1, EP3 receptor. The experiment is described as follows: CHO cell cAMP assay (forskolin and sulprostone stimulated, HTRF). It counts as cell-based. Particulars: CHO cells; sulprostone 700 nM (EC80) and FSK 2 μM (EC70), 37° C. for 30 minutes; read-out: CHO_cAMP IC50. The protocol: For detection, a homogeneous competitive immunoassay (Time Resolved Fluorescence Energy Transfer (hTR-FRET)) was used.
Cells (6K cells per well) were plated in Poly-D-Lysine coated plates the day before the assay was to be run and were incubated at 37° C. […] At the start of the assay the buffer was removed from the cells and replaced with buffer containing test compound(s). Sulprostone at an EC80 dose (700 nM) and FSK at an EC70 dose (2 μM) were added to initiate the reaction (37° C. for 30 minutes).
FSK increases cAMP production and sulprostone decreases cAMP production produced by FSK. In this assay, EP3 antagonists will increase the cAMP to the level of cAMP generated by FSK alone.
Approximately one hour later the plates were read on an Envision (Perkin Elmer) in HTRF mode.
NSP, NSN, NSsample were converted to nM cAMP using the following equation: […]
IC50 values were determined from a […] (Hill equation) of a single 11-point compound dosing.
A general note: Cyclic AMP is a second messenger, typically raised through Gs and lowered through Gi signalling.

Read-outs that look alike come from different tables or passages of the source.

One may read the Ki as the equilibrium dissociation constant of an inhibitor or competing ligand from its target. A word on the IC50: it is the point on the concentration scale where inhibition reaches its midpoint. For `O=C1NC(=O)[C@]2(CCC[C@H](c3ccc(-c4ccc5ccccc5c4)[nH]c3=O)C2)N1` (racemic) [compound 191, 7-(6-(naphthalen-2-yl)-2-oxo-1,2-dihydropyridin-3-yl)-1,3-diazaspiro[4.5]decane-2,4-dione], the Ki at EP3 receptor [1] (read-out: [3H]-PGE2 Binding Ki) came to 0.005 µM. Further, the IC50 on EP3 receptor [2] was 0.02 µM.
For `CCn1ncc2c(F)cc(-c3ccc(C(CC)(CC)c4nnn[nH]4)c(=O)[nH]3)cc21` [Compound #3, 3-(3-(1H-tetrazol-5-yl)pentan-3-yl)-6-(1-ethyl-4-fluoro-1H-indazol-6-yl)pyridin-2(1H)-one] the same measures were 0.017 µM and 0.349 µM.
The like results for `CCn1ncc2c(F)cc(-c3ccc(C(CC)(CC)c4noc(=O)[nH]4)c(=O)[nH]3)cc21` [Compound #4] were, in that order, 0.088 µM and 1.8 µM.
Turning to `CCn1ncc2c(F)cc(-c3ccc(C(CC)(CC)c4ccon4)c(=O)[nH]3)cc21` [Compound #29, 6-(1-ethyl-4-fluoro-1H-indazol-6-yl)-3-(3-(isoxazol-3-yl)pentan-3-yl)pyridin-2(1H)-one], the Ki on EP3 receptor [1] (read-out: [3H]-PGE2 Binding Ki) was found to be 0.003 µM. The concentration for half-maximal inhibition (IC50) at EP3 receptor [2] was 0.009 µM.
On to `CCn1ncc2c(F)cc(-c3ccc(C(CC)(CC)c4ncco4)c(=O)[nH]3)cc21` [Compound #30, 6-(1-ethyl-4-fluoro-1H-indazol-6-yl)-3-(3-(oxazol-2-yl)pentan-3-yl)pyridin-2(1H)-one], for which, on EP3 receptor [1] (read-out: [3H]-PGE2 Binding Ki), the Ki stood at 0.002 µM. Besides, on EP3 receptor [2], the IC50 was determined as 0.012 µM.
The like results for `CCn1ncc2c(F)cc(-c3ccc(C(CC)(CC)c4nnco4)c(=O)[nH]3)cc21` [Compound #42, 3-(3-(1,3,4-oxadiazol-2-yl)pentan-3-yl)-6-(1-ethyl-4-fluoro-1H-indazol-6-yl)pyridin-2(1H)-one] were, in that order, 0.009 µM and 0.02 µM.
For `CC(C)C(/C=C1/C(=O)NC(=O)N1C)c1ccc(-c2ccc3cccc(F)c3c2)[nH]c1=O` (stereo not shown) [Compound #80, 5-(2-(6-(8-fluoronaphthalen-2-yl)-2-oxo-1,2-dihydropyridin-3-yl)-3-methylbutylidene)-1-methylimidazolidine-2,4-dione] the same measures were 0.006 µM and 0.011 µM.
The like results for `CCn1ncc2c(F)cc(-c3ccc(C(Cc4noc(=O)[nH]4)C(C)C)c(=O)[nH]3)cc21` (stereo not shown) [Compound #99, 3-(2-(6-(1-ethyl-4-fluoro-1H-indazol-6-yl)-2-oxo-1,2-dihydropyridin-3-yl)-3-methylbutyl)-1,2,4-oxadiazol-5(4H)-one] were, in that order, 0.921 µM and 4.88 µM.
For the compound `CCN1CCOc2ccc(-c3ccc(C(CN4CCS(=O)(=O)CC4)C(C)C)c(=O)[nH]3)cc21` (stereo not shown) [Compound #104, 3-(1-(1,1-dioxidothiomorpholino)-3-methylbutan-2-yl)-6-(4-ethyl-3,4-dihydro-2H-benzo[b][1,4]oxazin-6-yl)pyridin-2(1H)-one], the Ki on EP3 receptor [1] (read-out: [3H]-PGE2 Binding Ki) came out at 0.053 µM. Also, the IC50 at EP3 receptor [2] was 0.375 µM.
As to `CCn1nc(C)c2ccc(-c3ccc(C(C=C4OC(=O)NC4=O)(CC)CC)c(=O)[nH]3)cc21` [compound 34, 5-(2-ethyl-2-(6-(1-ethyl-3-methyl-1H-indazol-6-yl)-2-oxo-1,2-dihydropyridin-3-yl)butylidene)oxazo-lidine-2,4-dione], at EP3 receptor [2], the IC50 is 17.6 µM.
On the same count and under the same terms, then `CCn1ncc2cc(C)c(-c3ccc(C(/C=C4/OC(=O)NC4=O)(CC)CC)c(=O)[nH]3)cc21` [compound 43, 5-(2-ethyl-2-(6-(1-ethyl-5-methyl-1H-indazol-6-yl)-2-oxo-1,2-dihydropyridin-3-yl)butylidene)oxazolidine-2,4-dione], with greater than 20 µM.
As for `CCn1ncc2c(F)cc(-c3ccc(C(CC4(C)CCNC4=O)C(C)C)c(=O)[nH]3)cc21` (stereo not shown) [compound 146, 6-(1-ethyl-4-fluoro-1H-indazol-6-yl)-3-(3-methyl-1-(3-methyl-2-oxopyrrolidin-3-yl)butan-2-yl)pyridin-2(1H)-one], the Ki on EP3 receptor [1] (read-out: [3H]-PGE2 Binding Ki) turned out to be 0.006 µM.
Same read-out and setting: then `CCn1ncc2c(F)cc(-c3ccc(C(CC4CCNC4=O)C(C)C)c(=O)[nH]3)cc21` (stereo not drawn) [compound 147, Syn-6-(1-ethyl-4-fluoro-1H-indazol-6-yl)-3-(3-methyl-1-(2-oxopyrrolidin-3-yl)butan-2-yl)pyridin-2(1H)-one], with 0.632 µM; and `CCn1ncc2c(F)cc(-c3ccc(C(CC4CCNC4=O)C(C)C)c(=O)[nH]3)cc21` (stereo not drawn) [compound 148, anti-6-(1-ethyl-4-fluoro-1H-indazol-6-yl)-3-(3-methyl-1-(2-oxopyrrolidin-3-yl)butan-2-yl)pyridin-2(1H)-one], with 0.787 µM.
On the same count and under the same terms, for `CCn1ncc2c(F)cc(-c3ccc(C(CC4CCC(=O)N4)C(C)C)c(=O)[nH]3)cc21` (stereo not shown) [compound 151, 6-(1-ethyl-4-fluoro-1H-indazol-6-yl)-3-(3-methyl-1-(5-oxopyrrolidin-2-yl)butan-2-yl)pyridin-2(1H)-one] the value was 0.011 µM; for `CCn1ncc2c(F)cc(-c3ccc(C4CCC5(CC4)CCN(S(=O)(=O)C(C)C)CC5)c(=O)[nH]3)cc21` [compound 204, 6-(1-ethyl-4-fluoroindazol-6-yl)-3-[3-(propane-2-sulfonyl)-3-azaspiro[5.5]undecan-9-yl]-1H-pyridin-2-one], 0.012 µM.
Still for that read-out and setting: then `CCn1ncc2c(F)cc(-c3ccc(C4CC5CN(S(=O)(=O)C(C)C)CC5C4)c(=O)[nH]3)cc21` (stereo not shown) [compound 205, 6-(1-ethyl-4-fluoro-1H-indazol-6-yl)-3-(2-(isopropylsulfonyl)-octahydrocyclopenta[c]pyrrol-5-yl)pyridin-2(1H)-one], with 0.051 µM.
In turn, `CCn1ncc2c(F)cc(-c3ccc(C4CC5CCC(C4)N5S(=O)(=O)C(C)C)c(=O)[nH]3)cc21` (stereo not shown) [compound 206, 6-(1-ethyl-4-fluoro-1H-indazol-6-yl)-3-(8-(isopropylsulfonyl)-8-azabicyclo[3.2.1]octan-3-yl)pyridin-2(1H)-one] registered a Ki at EP3 receptor [1] ([3H]-PGE2 Binding Ki) of 0.025 µM.
On to `CCn1ncc2c(F)cc(-c3ccc(C4CCC5(CCNC5=O)CC4)c(=O)[nH]3)cc21` (stereo not shown) [compound 207, 8-(6-(1-ethyl-4-fluoro-1H-indazol-6-yl)-2-oxo-1,2-dihydropyridin-3-yl)-2-azaspiro[4.5]decan-1-one], for which the Ki at EP3 receptor [1] (read-out: [3H]-PGE2 Binding Ki) was found to be 0.015 µM.
Consider `CCn1ncc2c(F)cc(-c3ccc(C4CC5CCC(C4)N5C(=O)NC(C)C)c(=O)[nH]3)cc21` (stereo not shown) [compound 208, 3-(6-(1-ethyl-4-fluoro-1H-indazol-6-yl)-2-oxo-1,2-dihydropyridin-3-yl)-N-isopropyl-8-azabicyclo[3.2.1]octane-8-carboxamide], for which the Ki at EP3 receptor [1] ([3H]-PGE2 Binding Ki) was found to be 0.158 µM.
On to `CCn1ncc2c(F)cc(-c3ccc(C4CC5CN(C(=O)NC(C)C)CC5C4)c(=O)[nH]3)cc21` (stereo not shown) [compound 209, 5-(6-(1-ethyl-4-fluoro-1H-indazol-6-yl)-2-oxo-1,2-dihydropyridin-3-yl)-N-isopropyl-hexahydrocyclopenta[c]pyrrole-2(1H)-carboxamide], for which, on EP3 receptor [1] (read-out: [3H]-PGE2 Binding Ki), the Ki is 0.02 µM.
Turning to `CCn1ncc2c(F)cc(-c3ccc(C4CC5COC(=O)N5C4)c(=O)[nH]3)cc21` (stereo not shown) [compound 215, 6-(6-(1-ethyl-4-fluoro-1H-indazol-6-yl)-2-oxo-1,2-dihydropyridin-3-yl)tetrahydro-1H,3H-pyrrolo[1,2-c]oxazol-3-one], at EP3 receptor [1] (read-out: [3H]-PGE2 Binding Ki), the Ki turned out to be 0.165 µM.
Still for that read-out and setting: then `CCn1ncc2c(F)cc(-c3ccc(C4(C(C)C)OCCNC4=O)c(=O)[nH]3)cc21` (stereo not shown) [compound 248, 2-(6-(1-ethyl-4-fluoro-1H-indazol-6-yl)-2-oxo-1,2-dihydropyridin-3-yl)-2-isopropylmorpholin-3-one], with 0.01 µM; and `CCC(CC)(Cc1nnc[nH]1)c1ccc(-c2ccc3cc(F)cc(F)c3c2)[nH]c1=O` [compound 279, 3-(3-((4H-1,2,4-triazol-3-yl)methyl)pentan-3-yl)-6-(6,8-difluoronaphthalen-2-yl)pyridin-2(3H)-one], with 0.06 µM; and `CC(C)C(/C=C1/OC(=O)NC1=O)c1ccc(-c2ccc3cccc(C#N)c3c2)[nH]c1=O` (stereo not shown) [compound 310, (E)-7-(5-(1-(2,4-dioxooxazolidin-5-ylidene)-3-methylbutan-2-yl)-6-oxo-1,6-dihydropyridin-2-yl)-1-naphthonitrile], with 0.071 µM.

The record behind these values is patent US10336701B2, “Pyridin-2-one derivatives of formula (II) useful as EP3 receptor antagonists” (Janssen Pharmaceutica NV, priority 2017, dated 2019).
